In PubChem BioAssay AID330 (DTP/NCI, 2004):
Several values for one entry are separate records, joined by “and”; a condition that tells them apart may be missing. Identical values can stand only once. Inconclusive results and toxic doses are left out. How the source made its calls: active means survival T/C of 150% or more; inactive means T/C below 125% in these data.

Test system: P388 leukemia ip, CD2F1 mice, survival T/C
Assay: NCI In Vivo Anticancer Drug Screen. Data for tumor model P388 Leukemia (intraperitoneal) in CD2F1 (CDF1) mice
Conditions: endpoint: median survival time, higher = longer survival
Method in brief: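 Mice carrying the transplanted tumor received test compound or vehicle. Survival was recorded in each group, and the value is the treated-group measurement divided by that of the vehicle-treated control group.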

[1] = dose: 50.0 mg/kg/injection, schedule: Q01DX009 (ip), vehicle: Klucel (hydroxypropylcellulose) (HPC)
[2] = dose: 50.0 mg/kg/injection, schedule: Q01DX005 (ip), vehicle: Klucel (hydroxypropylcellulose) (HPC)
[3] = dose: 60.0 mg/kg/injection, schedule: Q01DX005 (ip), vehicle: saline
[4] = dose: 6.25 mg/kg/injection, schedule: Q01DX005 (ip), vehicle: saline with Tween-80
[5] = dose: 25.0 mg/kg/injection, schedule: Q01DX009 (ip), vehicle: saline with Tween-80
[6] = dose: 50.0 mg/kg/injection, schedule: Q01DX009 (ip), vehicle: saline with Tween-80
[7] = dose: 100.0 mg/kg/injection, schedule: Q01DX009 (ip), vehicle: saline with Tween-80
[8] = dose: 100.0 mg/kg/injection, schedule: Q01DX009 (ip), vehicle: saline
[9] = dose: 200.0 mg/kg/injection, schedule: Q01DX009 (ip), vehicle: saline
[10] = dose: 50.0 mg/kg/injection, schedule: Q01DX005 (ip), vehicle: saline with Tween-80
[11] = dose: 100.0 mg/kg/injection, schedule: Q01DX005 (ip), vehicle: saline with Tween-80
[12] = dose: 200.0 mg/kg/injection, schedule: Q01DX005 (ip), vehicle: saline with Tween-80

Measured: T/C

C[As](C)SCCC(CCCCC(=O)O)S[As](C)C (stereo not given)
inactive: dose: 12.5 mg/kg/injection, schedule: Q01DX009 (ip), vehicle: Klucel (hydroxypropylcellulose) (HPC) 109 % of control and 111 % of control | dose: 25.0 mg/kg/injection, schedule: Q01DX009 (ip), vehicle: Klucel (hydroxypropylcellulose) (HPC) 122 % of control | dose: 25.0 mg/kg/injection, schedule: Q04DX003 (ip), vehicle: saline with Tween-80 106 % of control | [1] 100 % of control | dose: 50.0 mg/kg/injection, schedule: Q04DX003 (ip), vehicle: saline with Tween-80 97 % of control | dose: 100.0 mg/kg/injection, schedule: Q04DX003 (ip), vehicle: saline with Tween-80 108 % of control

CC(=O)c1c(O)c(C)c(O)c2c1OC1=CC(=O)/C(=C(/C)N)C(=O)C12C (stereo not given)
inactive: dose: 6.25 mg/kg/injection, schedule: Q01DX009 (ip), vehicle: gum acacia 107 % of control and 112 % of control | dose: 12.5 mg/kg/injection, schedule: Q01DX009 (ip), vehicle: gum acacia 100 % of control and 105 % of control | dose: 25.0 mg/kg/injection, schedule: Q01DX009 (ip), vehicle: gum acacia 102 % of control and 109 % of control | dose: 50.0 mg/kg/injection, schedule: Q01DX009 (ip), vehicle: gum acacia 100 % of control and 86 % of control | dose: 100.0 mg/kg/injection, schedule: Q01DX009 (ip), vehicle: gum acacia 100 % of control and 106 % of control | dose: 200.0 mg/kg/injection, schedule: Q01DX009 (ip), vehicle: gum acacia 102 % of control and 110 % of control

CC(C)c1ccc(C(Cc2ccccc2)N(CCO)CCO)cc1 (stereo not given)
inactive: dose: 12.5 mg/kg/injection, schedule: Q01DX005 (ip), vehicle: Klucel (hydroxypropylcellulose) (HPC) 105 % of control | dose: 25.0 mg/kg/injection, schedule: Q01DX005 (ip), vehicle: Klucel (hydroxypropylcellulose) (HPC) 104 % of control | [2] 99 % of control and 91 % of control

CS(=O)CC1OC2OC3C(CO)OC(OC4C(CO)OC(OC5C(CO)OC(OC6C(CO)OC(OC7C(CO)OC(OC8C(CO)OC(OC1C(O)C2O)C(O)C8O)C(O)C7O)C(O)C6O)C(O)C5O)C(O)C4O)C(O)C3O (stereo not given)
inactive: [3] 100 % of control | dose: 120.0 mg/kg/injection, schedule: Q01DX005 (ip), vehicle: saline 106 % of control | dose: 240.0 mg/kg/injection, schedule: Q01DX005 (ip), vehicle: saline 104 % of control

Cn1cccc1/C=N/N1CC(=O)N(c2cccc(C(F)(F)F)c2)CC1=O
inactive: [4] 98 % of control | dose: 12.5 mg/kg/injection, schedule: Q01DX005 (ip), vehicle: saline with Tween-80 100 % of control

C#CCOc1ccc(Cl)cc1[N+](=O)[O-]
inactive: [1] 100 % of control | dose: 100.0 mg/kg/injection, schedule: Q01DX009 (ip), vehicle: Klucel (hydroxypropylcellulose) (HPC) 99 % of control | dose: 200.0 mg/kg/injection, schedule: Q01DX009 (ip), vehicle: Klucel (hydroxypropylcellulose) (HPC) 104 % of control

CC1(C)C(=O)C=CC2(C)C1CC(O)C1(C)C2CCC2(C)C(c3ccoc3)OC(=O)C3OC321 (stereo not given)
inactive: dose: 1.5 mg/kg/injection, schedule: Q01DX009 (ip), vehicle: Klucel (hydroxypropylcellulose) (HPC) 98 % of control | dose: 3.0 mg/kg/injection, schedule: Q01DX009 (ip), vehicle: Klucel (hydroxypropylcellulose) (HPC) 103 % of control | dose: 6.0 mg/kg/injection, schedule: Q01DX009 (ip), vehicle: Klucel (hydroxypropylcellulose) (HPC) 101 % of control | dose: 12.0 mg/kg/injection, schedule: Q01DX009 (ip), vehicle: Klucel (hydroxypropylcellulose) (HPC) 102 % of control

CC(=O)OC1CN(C)CC=C1c1ccccc1 (stereo not given)
inactive: dose: 15.0 mg/kg/injection, schedule: Q01DX005 (ip), vehicle: saline with Tween-80 91 % of control | dose: 30.0 mg/kg/injection, schedule: Q01DX005 (ip), vehicle: saline with Tween-80 97 % of control | dose: 60.0 mg/kg/injection, schedule: Q01DX005 (ip), vehicle: saline with Tween-80 100 % of control and 97 % of control

O=C(/C=C/c1ccco1)c1ccc(O)c(C(=O)O)c1
inactive: [5] 99 % of control | [6] 105 % of control | [7] 102 % of control

CCCCCCC(=O)/C=C/c1ccc(OC(=O)c2ccc(OC)cc2)cc1
inactive: dose: 6.25 mg/kg/injection, schedule: Q01DX009 (ip), vehicle: saline with Tween-80 100 % of control | dose: 12.5 mg/kg/injection, schedule: Q01DX009 (ip), vehicle: saline with Tween-80 105 % of control | [5] 98 % of control | [6] 91 % of control | [7] 89 % of control

O=C1CC2(CCCCC2)C(=O)N1c1ccc(N2C(=O)CC3(CCCCC3)C2=O)cc1
inactive: dose: 100.0 mg/kg/injection, schedule: Q04DX003 (ip), vehicle: Klucel (hydroxypropylcellulose) (HPC) 99 % of control | dose: 200.0 mg/kg/injection, schedule: Q04DX003 (ip), vehicle: Klucel (hydroxypropylcellulose) (HPC) 93 % of control | dose: 400.0 mg/kg/injection, schedule: Q04DX003 (ip), vehicle: Klucel (hydroxypropylcellulose) (HPC) 96 % of control

O=C1OCC2CC3C4C=CC(C4)C3C12 (stereo not given)
inactive: [2] 103 % of control | dose: 100.0 mg/kg/injection, schedule: Q01DX005 (ip), vehicle: Klucel (hydroxypropylcellulose) (HPC) 93 % of control

C[S+](C)C
inactive: [8] 110 % of control | [9] 110 % of control | dose: 400.0 mg/kg/injection, schedule: Q01DX009 (ip), vehicle: saline 110 % of control

CCOC(=O)NC(=S)Nc1cn(C)cc1[N+](=O)[O-]
inactive: [10] 100 % of control | [11] 100 % of control | [12] 95 % of control

ClC1=C(Cl)C2(Cl)C3C(Cl)C(Cl)CC3C1(Cl)C2(Cl)Cl (stereo not given)
inactive: dose: 3.12 mg/kg/injection, schedule: Q01DX009 (ip), vehicle: saline + Tween-80 + alcohol 100 % of control and 101 % of control | dose: 6.25 mg/kg/injection, schedule: Q01DX009 (ip), vehicle: saline + Tween-80 + alcohol 107 % of control and 112 % of control | dose: 12.5 mg/kg/injection, schedule: Q01DX009 (ip), vehicle: saline + Tween-80 + alcohol 114 % of control and 87 % of control | dose: 25.0 mg/kg/injection, schedule: Q01DX009 (ip), vehicle: other 110 % of control and 89 % of control | dose: 25.0 mg/kg/injection, schedule: Q01DX009 (ip), vehicle: saline + Tween-80 + alcohol 103 % of control and 96 % of control | dose: 50.0 mg/kg/injection, schedule: Q01DX009 (ip), vehicle: other 110 % of control and 86 % of control and 98 % of control | dose: 100.0 mg/kg/injection, schedule: Q01DX009 (ip), vehicle: other 108 % of control and 93 % of control | dose: 200.0 mg/kg/injection, schedule: Q01DX009 (ip), vehicle: other 90 % of control

C[CH2][Ge]([CH2]C)[CH2]C.C[CH2][Ge]([CH2]C)[O]C
inactive: dose: 50.0 mg/kg/injection, schedule: Q01DX009 (ip), vehicle: saline 106 % of control | [8] 92 % of control | [9] 92 % of control

CNC(=O)OCc1c(COC(=O)NC)c2n(c1C)CCS2(=O)=O
inactive: dose: 25.0 mg/kg/injection, schedule: Q01DX005 (ip), vehicle: saline with Tween-80 106 % of control | [10] 101 % of control | [11] 86 % of control | [12] 88 % of control

O=C1NC(=O)N(c2ccccc2)C(=O)/C1=C/c1ccc2c(c1)CCC2
inactive: dose: 60.0 mg/kg/injection, schedule: Q01DX005 (ip), vehicle: Klucel (hydroxypropylcellulose) (HPC) 95 % of control | dose: 120.0 mg/kg/injection, schedule: Q01DX005 (ip), vehicle: Klucel (hydroxypropylcellulose) (HPC) 97 % of control | dose: 240.0 mg/kg/injection, schedule: Q01DX005 (ip), vehicle: Klucel (hydroxypropylcellulose) (HPC) 108 % of control

CCOc1c(N=Nc2cccc(Cl)c2)c(-c2ccccc2)nn1C(=S)S
inactive: dose: 0.78 mg/kg/injection, schedule: Q01DX005 (ip), vehicle: saline with Tween-80 100 % of control | dose: 1.56 mg/kg/injection, schedule: Q01DX005 (ip), vehicle: saline with Tween-80 99 % of control | dose: 3.13 mg/kg/injection, schedule: Q01DX005 (ip), vehicle: saline with Tween-80 100 % of control | [4] 99 % of control and 100 % of control

CC(=O)N/C(=C\c1ccccc1)C(=O)NC(C)C(=O)O (stereo not given)
inactive: [10] 89 % of control | [11] 92 % of control | [12] 86 % of control

NNP(=O)(NN)C(Cl)(Cl)Cl
inactive: dose: 15.0 mg/kg/injection, schedule: Q01DX005 (ip), vehicle: saline 101 % of control | dose: 30.0 mg/kg/injection, schedule: Q01DX005 (ip), vehicle: saline 100 % of control | [3] 108 % of control and 114 % of control

CC(=Nc1c[nH]c(=O)[nH]c1=O)c1ccccc1
inactive: dose: 100.0 mg/kg/injection, schedule: Q04DX002 (ip), vehicle: suspension in saline 104 % of control | dose: 200.0 mg/kg/injection, schedule: Q04DX002 (ip), vehicle: suspension in saline 101 % of control | dose: 400.0 mg/kg/injection, schedule: Q04DX002 (ip), vehicle: suspension in saline 94 % of control
